In patent US20030229035A1, “Method of restoring ciliated cell motility” (priority 2001, published 2003):

How the values were obtained:
proteasome pathway = assay: Coupled in vitro transcription/translation of Insl6 using reticulocyte lysates with proteasome inhibition; type: biochemical; conditions: 5 μM, [35S] L-cysteine, FIG. 5E
Protocol: (§1) Based on the magnitude of difference in molecular weights between the two species (31-32 vs. 40 kDa), it was investigated whether Insl6 is ubiquinated. […] In contrast, the absence of the larger bands in a transcription/translation reaction using wheat germ extracts (FIG. 5C) supports the possibility that the Insl6 protein is ubiquinated. […] Briefly CHO cells stably expressing Insl6 were either exposed to vehicle (−) or 5 μM Clasto-Lactacystin-β-lactone (Clasto-L) (+) and cells harvested after 4 h (lanes A & B) or 24 h (lanes C & D). The cell lysates were Western blotted with anti-Insl6 antibody. To address te possibility that over-expression of Insl6 in the CHO cells may have facilitated aberrant ubiquination, the effect of inhibition of the proteasome pathway in a coupled in vitro transcriptiontranslation was investigated. The data obtained support the in vivo data showing that inhibition of the proteasome pathway results in decelerated rate of degradation of the Insl6 (FIG. 5E). Briefly, coupled in vitro transcription/translation of Insl6 using reticulocyte lysates performed in the presence of [^35S]

proteosome pathway = assay: Proteasome inhibition in CHO cells stably expressing recombinant Insl6, Western blot with anti-Insl6 antibody; type: cell-based, chinese hamster; conditions: 5 μM, cells harvested after 4 h or 24 h, FIG. 5D
Protocol: as §1

PKC = conditions: no effect on PKC; cited from earlier work
PKA = PKA (Homo sapiens, UniProt P17612); conditions: vendor Tocris; cited from earlier work
PKG = molecular target: T1, PKG (Homo sapiens, UniProt Q13976); conditions: no effect on PKG; cited from earlier work
T1 sequence (Q13976 1-671): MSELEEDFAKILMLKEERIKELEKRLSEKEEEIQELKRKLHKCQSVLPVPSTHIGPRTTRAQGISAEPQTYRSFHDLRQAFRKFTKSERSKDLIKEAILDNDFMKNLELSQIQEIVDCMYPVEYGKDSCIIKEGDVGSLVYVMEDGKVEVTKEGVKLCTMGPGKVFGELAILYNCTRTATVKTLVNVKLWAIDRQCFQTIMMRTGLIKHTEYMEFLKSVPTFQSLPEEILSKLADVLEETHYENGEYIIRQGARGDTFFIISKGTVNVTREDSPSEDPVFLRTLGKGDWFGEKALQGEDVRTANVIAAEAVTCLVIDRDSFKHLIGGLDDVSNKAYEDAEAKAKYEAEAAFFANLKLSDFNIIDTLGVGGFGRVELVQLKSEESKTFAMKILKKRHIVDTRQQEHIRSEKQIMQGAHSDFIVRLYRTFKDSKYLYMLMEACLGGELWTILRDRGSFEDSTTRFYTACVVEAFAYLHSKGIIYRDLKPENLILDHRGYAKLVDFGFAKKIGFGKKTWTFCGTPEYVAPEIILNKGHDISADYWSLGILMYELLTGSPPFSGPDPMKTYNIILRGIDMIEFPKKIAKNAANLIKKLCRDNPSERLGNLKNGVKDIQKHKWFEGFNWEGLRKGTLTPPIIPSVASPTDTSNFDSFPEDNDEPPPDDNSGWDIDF

MSC-1 cells = assay: Proliferation of MSC-1 cells, colorimetric viable cell assay; type: cell-based, mouse; conditions: serum-deprived cells, varying time periods, conditioned medium from CHO cells expressing Insl6 vs non-transfected CHO; FIG. 12
Protocol: To further investigate the significance of alteration in the tyrosine phosphorylation status of MSC-1 proteins, the effects of Insl6 on proliferation of MSC-1 were tested. For these experiments serum-deprived MSC-1 cells were exposed for varying time periods to serum-free conditioned medium from either CHO cells expressing Insl6 or from non-transfected CHO cells and the number of viable cells determined by a colorimetic assay (celltiter 96 Aqueous One Solution Cell Proliferation Assay; Promega, Madison, Wis., USA).

[1] = tested on: rat primary Sertoli cells; assay: Tyrosine phosphorylation profile of rat primary Sertoli cell proteins by Western blotting; type: cell-based; conditions: serum-deprived rat primary Sertoli cells, recombinant Insl6 in serum-free milieu
Source text: Although Sertoli cell lines are useful tools for investigating Sertoli cell function, they are important differences between primary Sertoli cells and established Sertoli cell lines. For example, compared to primary Sertoli cells, MSC-1 cells are relatively deficient in the FSH receptor. […] For this purpose, we exposed serum-deprived rat primary Sertoli cells to recombinant Insl6 in a serum-free milieu and determined the tyrosine phosphorylation profile of cellular proteins by Western blotting. […] Based on the premise that Insl6 belongs to the insulin family of proteins, the following canonical signaling pathways involving Insl6 action on Sertoli cells were investigated:
Isolation and culture of primary rat Sertoli cells—Rat Sertoli cells were isolated in our laboratory using a standardized protocol. […] The purity of the Sertoli cell isolate yielded by this protocol is >95% as determined by phase microscopy and alkaline phosphatase staining.
(§2) Western Blot Analysis—Western blot analyses were carried out by established protocols known by those skilled in art. […] Equality of loading and efficiency of transfer were assessed by Ponceau staining of the nitrocellulose filters and protein concentration determined by Bradford's method (BioRad). […]

[2] = tested on: MSC-1 (mouse Sertoli cell line) cells; assay: Tyrosine phosphorylation of MSC-1 cellular proteins, anti-phosphotyrosine Western blot; type: cell-based; conditions: serum-deprived cells, ten minutes, serum-free conditioned medium from CHO cells expressing Insl6 vs non-transfected CHO; FIG. 11A
Source text: The effect of Insl6 on Sertoli cells was confirmed by exposing serum-deprived MSC-1 (mouse Sertoli cell line) cells to serum-free conditioned medium containing recombinant Insl6 secreted by the CHO cells stably expressing epitope-tagged Ins16. The effect of Insl6 on the phosphorylation status of MSC-1 cellular proteins was initially investigated. […] Serum-deprived MSC-1 cells were exposed for ten minutes to serum-free conditioned medium from either CHO cells expressing Insl6 (lane A, FIG. 11A) or from non-transfected CHO cells (lane B, FIG. 11A). Cell lysates were subjected to reducing SDS-PAGE and blotted with antiphphosphotyrosine antibodies. The specific protein bands showing increased phosphorylation in response to Insl6 are indicated by the diamond and star symbols respectively.
as §2

With `CC(C)[C@H](O)[C@@]12NC(=O)[C@H](C)[C@@H]1OC2=O` [Clasto-Lactacystin-β-lactone] the “effect on rate of degradation of Insl6” value (proteasome pathway) was “decelerated rate of degradation of Insl6” and the “effect on half-life of Insl6” value (proteosome pathway) was “prolongation of the half-life of Insl6”.

In the case of `CCCCCCOC(=O)[C@]1(O)C[C@@H]2O[C@@]1(C)n1c3ccccc3c3c4c(c5c6ccccc6n2c5c31)C(=O)NC4` [KT 5720], the Ki (PKC) is given as greater than 2 µM, the Ki (PKA) is given as 0.06 µM and the Ki (PKG) is given as greater than 2 µM.

B1: Insl6: recombinant His-myc epitope-tagged murine Insl6, insulin family protein, secreted by stably expressing CHO cells (protein)
chain: EEESRPRKLCGRHLLIEVIKLCGQSDWSRFEMEEQSPMTQFFPHYSRKGKAFNPHPSSSAWRRFTNPVPAGVSQKKGTHTWEPQSLPDYQFEKTELLPKARVFSYHSGKPYVKSVQLQKKSTNKMNTFRSLFWGNHSQRKRRGFADKCCVIGCTKEEMAVACLPFVDF
modifications: left off: small tags and cut ends
For B1, the effect on proliferation (MSC-1 cells) was “significantly inhibits the proliferation of MSC-1 in a time-dependent manner”, the “effect on tyrosine phosphorylation of cellular proteins” value [1] was “alters the tyrosine phosphorylation status of cellular proteins” and the “effect on tyrosine phosphorylation of cellular proteins” value [2] was “specific tyrosine phosphorylation of proteins of molecular weights of approximately 55 and 40 kDa”.
